These results are taken from paper PMC11744769, “Modulation of the mechanism of action of antibacterial silver N-heterocyclic carbene complexes by variation of the halide ligand” (RSC Advances, 2025).

The test deals with T1, thioredoxin reductase (TrxR) (Escherichia coli, UniProt P0A9P4).
T1 construct: gene trxB
T1 sequence (P0A9P4 2-321): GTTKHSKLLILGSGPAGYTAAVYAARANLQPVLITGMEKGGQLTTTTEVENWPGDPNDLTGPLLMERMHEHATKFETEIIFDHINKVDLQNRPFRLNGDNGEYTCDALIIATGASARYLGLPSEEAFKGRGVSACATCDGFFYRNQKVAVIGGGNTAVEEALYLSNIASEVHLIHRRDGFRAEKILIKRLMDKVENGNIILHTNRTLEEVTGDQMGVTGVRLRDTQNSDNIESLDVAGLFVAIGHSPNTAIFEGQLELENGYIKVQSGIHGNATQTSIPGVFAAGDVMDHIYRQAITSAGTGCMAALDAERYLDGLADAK
The experiment in a line: DTNB reduction kinetic assay with Trx and NADPH in lysates of treated E. coli DSM […] cells. The test is classed as cell-based.
As for `CC(C)n1[c]([Ag-][Cl])[n+](Cc2ccccn2)c2ccccc21` [1-Cl], the IC50 is approximately 11 µM.
For `CC(C)n1[c]([Ag-][I])[n+](Cc2ccccn2)c2ccccc21` [1-I], the IC50 is approximately 6 µM.
The figure for `COCCn1[c]([Ag-][Cl])[n+](Cc2ccccn2)c2ccccc21` [2-Cl] is approximately 11 µM.
`COCCn1[c]([Ag-][I])[n+](Cc2ccccn2)c2ccccc21` [2-I] showed an IC50 of approximately 6 µM.

A word on the IC50: it is the concentration that inhibits the measured activity by half.
